Test results taken from US20210198256A1, “COMPOUNDS FOR THE DEGRADATION OF BRD9 OR MTH1” (C4 Therapeutics, Inc., priority 2018, published 2021).

target: T1, BRD9 (Homo sapiens, UniProt Q9H8M2); assay: HiBit Lytic Assay (HiBit DC50, BRD9 degraders of Table 1); assay type: cell-based; details: 11-point half log dose response, NanoLuc signal
T1 sequence (Q9H8M2 1-597): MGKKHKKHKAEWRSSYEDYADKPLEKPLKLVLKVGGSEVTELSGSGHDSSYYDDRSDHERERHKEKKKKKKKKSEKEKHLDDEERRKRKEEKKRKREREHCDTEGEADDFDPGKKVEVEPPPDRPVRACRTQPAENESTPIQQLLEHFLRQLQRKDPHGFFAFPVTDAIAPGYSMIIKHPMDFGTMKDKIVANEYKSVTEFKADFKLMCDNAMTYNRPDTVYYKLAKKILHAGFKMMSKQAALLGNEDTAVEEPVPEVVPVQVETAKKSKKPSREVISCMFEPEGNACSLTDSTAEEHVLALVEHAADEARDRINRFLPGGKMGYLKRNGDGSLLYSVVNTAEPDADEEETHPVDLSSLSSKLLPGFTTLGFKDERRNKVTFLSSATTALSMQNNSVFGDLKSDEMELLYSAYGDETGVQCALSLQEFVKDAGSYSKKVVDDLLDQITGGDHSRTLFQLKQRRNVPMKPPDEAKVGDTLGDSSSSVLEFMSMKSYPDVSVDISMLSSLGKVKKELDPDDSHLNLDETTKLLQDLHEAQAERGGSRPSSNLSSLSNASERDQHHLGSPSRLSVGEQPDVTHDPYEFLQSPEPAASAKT
Method: Example 3. HiBit Lytic Assay
• Compound is made at 10 mM, half log dilution, 11 points. • MDR plates can also be ordered from Frontier with same format. • 1. Barcode a 384LDV plate (384-well Low Dead Volume Microplate, Labcyte LP-0200) (Echo compatible) on the left side. • 2. Transfer 13.6 μL of 10 mM compound into column 1 of LDV plate (Labcyte). • 3. Fill column 2-11 and column 23 of MDR plate with 9.30 μL of DMSO. • 4. Serial dilute 3.16 fold from column 1 to 2 by transferring 4.30 μL from column 1 to column 2, and so on to column 11. *Change tip in every dilution to prevent compound carryover effect! • 5. Seal the plate with Plate Sealer, then store the MDR plate at room temperature for short term storage and in −20° C. for long term storage.
• Cells are treated with 30 nL of each compound at 10 mM, half log dilution, 11 points with final concentration of 1000 nM or 833 nM, half log dilution, 11 points, in duplicates. Final DMSO concentration is 0.1%. • 1. Barcode the plates made on the left side and label the plates with silver marker. • 2. Dispense with the following scheme: • a. 30 nL of compound into corresponding wells in cell plates via Echo550 with “MDR32_HiBiT16_30 nL”. Top concentration will be 1000 nM. • 3. Seal the plate with Plate Sealer.
• Cells are dispensed at density specified in Cell Line Table in 384-well microplate. • 1. Culture cells to between 50-80% of confluence in sterile culture flasks of appropriate size. • 2. For Adherent Cell Lines: • a. Aspirate off growth media in culture flask, and wash off the Phenol Red media with 5 mL of 1×PBS. • b. Add 5 mL of Trypsin to the cells, incubate at 37° C. for 5 minutes. • c. Add 5 mL of growth media to the trypsinzed cells, and resuspend. • 3. Remove 10 μL of cells, and resuspend the cells with 10 μL of Trypan Blue. Insert the solution to counting chamber slide, and count the cells via cell counter. • 4. Adjust the cell concentration to specified plating density, and strain the cells with cell strainer. • 5. Dispense the cells via E1-ClipTip™ Electronic Multichannel Pipettes or Multidrop™ Combi Reagent Dispenser with Standard tube dispensing cassette: • a. Prime the cassette with 10-20 mL of ddH2O. • b. Prime the cassette with 10-20 mL of cells. • c. Dispense the cells at low speed for 30 μL/well in Corning® 384 Well Low Flange Black Flat Bottom Polystyrene TC-Treated Microplate. • d. Wash the cassette with 10-20 mL of ddH2O, follow by 10-20 mL of 70% EtOH, then again with 10-20 mL of ddH2O. • 6. Incubate the plates at 37° C.×compound treatment time.
• 1. If not already, bring Nano-Glo® HiBiT Lytic Buffer to room temperature. • 2. Determine the amount of reagent needed. A volume of reagent equal to the volume of media in the well should be added (i.e. 30 μL of cells will need 30 μL of HiBiT Lytic reagent). • 3. Into a given volume of buffer, dilute the substrate 50-fold and the LgBiT protein 100-fold. For example, to make 10 ml of reagent, add the following: • 10 ml Nano-Glo® HiBiT Lytic Buffer • 200 μl Nano-Glo® HiBiT Lytic Substrate • 100 μl LgBiT Protein • The reagent should be reconstituted immediately before use. However, once reconstituted, it should take about 4 hours for the activity to decrease 10%. • 4. Cool down the cell plate to room temperature for 10-15 minutes without lid. • 5. Dispense the HiBiT Lytic Reagent via E1-ClipTip™ Electronic Multichannel Pipettes or Multidrop™ Combi Reagent Dispenser with Standard tube dispensing cassette: • a. Prime the cassette with 10-20 mL of ddH2O. • b. Prime the cassette with 10-20 mL of CTG 2.0. • c. Dispense the HiBiT Lytic Reagent at medium speed for 30 μL/well in cell plate to column 1-23 (column 24 will be used as plate background). • d. Wash the cassette with 10-20 mL of ddH2O, follow by 10-20 mL of 70% EtOH, then again with 10-20 mL of ddH2O. • 6. Incubate the cell plate at room temperature for 10 minutes without lid. • 7. […]

DC50, < 100 nM:
COc1cc(-c2cn(C)c(=O)c3c2cnn3C)cc(OC)c1CN(C)CC(=O)NCCCCCCCCNc1cccc2c1C(=O)N(C1CCC(=O)NC1=O)C2=O (stereo not shown) [Compound 200, 2-[[4-(1,6-dimethyl-7-oxo-pyrazolo[3,4-c]pyridin-4-yl)-2,6-dimethoxy-phenyl]methyl-methyl-amino]-N-[8-[[2-(2,6-dioxo-3-piperidyl)-1,3-dioxo-isoindolin-4-yl]amino]octyl]acetamide]
COc1cc(-c2cn(C)c(=O)c3[nH]ncc23)cc(OC)c1CN(C)CC(=O)NCCCCCCCCNc1cccc2c1C(=O)N(C1CCC(=O)NC1=O)C2=O (stereo not shown) [Compound 201, 2-[[2,6-dimethoxy-4-(6-methyl-7-oxo-1H-pyrazolo[3,4-c]pyridin-4-yl)phenyl]methyl-methyl-amino]-N-[8-[[2-(2,6-dioxo-3-piperidyl)-1,3-dioxo-isoindolin-4-yl]amino]octyl]acetamide]
COc1cc(-c2cn(C)c(=O)c3[nH]ncc23)cc(OC)c1CNCC(=O)NCCCCCCCCCc1ccc2c(c1)C(=O)N(C1CCC(=O)NC1=O)C2=O (stereo not shown) [Compound 202, 2-[[2,6-dimethoxy-4-(6-methyl-7-oxo-1H-pyrazolo[3,4-c]pyridin-4-yl)phenyl]methylamino]-N-[9-[2-(2,6-dioxo-3-piperidyl)-1,3-dioxo-isoindolin-5-yl]nonyl]acetamide]
COc1cc(-c2cn(C)c(=O)c3[nH]ncc23)cc(OC)c1CNCC(=O)NCCCCCCCCCc1cccc2c1C(=O)N(C1CCC(=O)NC1=O)C2=O (stereo not shown) [Compound 204, 2-[[2,6-dimethoxy-4-(6-methyl-7-oxo-1H-pyrazolo[3,4-c]pyridin-4-yl)phenyl]methylamino]-N-[9-[2-(2,6-dioxo-3-piperidyl)-1,3-dioxo-isoindolin-4-yl]nonyl]acetamide]
COc1cc(-c2cn(C)c(=O)c3c2cnn3C)cc(OC)c1CNCC(=O)NCCCCCCCCCc1ccc2c(c1)C(=O)N(C1CCC(=O)NC1=O)C2=O (stereo not shown) [Compound 206]
COc1cc(-c2cn(C)c(=O)c3[nH]ncc23)cc(OC)c1CNCC(=O)NCCCCCNC(=O)CCc1ccc2c(c1)C(=O)N(C1CCC(=O)NC1=O)C2=O (stereo not shown) [Compound 207, N-[5-[[2-[[2,6-dimethoxy-4-(6-methyl-7-oxo-1H-pyrazolo[3,4-c]pyridin-4 yl)phenyl]methylamino]acetyl]amino]pentyl]-3-[2-(2,6-dioxo-3-piperidyl)-1,3-dioxo-isoindolin-5-yl]propanamide]
COc1cc(-c2cn(C)c(=O)c3c2cnn3C)cc(OC)c1CNCC(=O)NCCCCCCCCCc1cccc2c1C(=O)N(C1CCC(=O)NC1=O)C2=O (stereo not shown) [Compound 208, 2-[[4-(1,6-dimethyl-7-oxo-pyrazolo[3,4-c]pyridin-4-yl)-2,6-dimethoxy-phenyl]methylamino]-N-[9-[2-(2,6-dioxo-3-piperidyl)-1,3-dioxo-isoindolin-4-yl]nonyl]acetamide]
COc1cc(-c2cn(C)c(=O)c3c2ccn3C)cc(OC)c1CN(C)CC(=O)NCCCCCCCCNc1cccc2c1C(=O)N(C1CCC(=O)NC1=O)C2=O (stereo not shown) [Compound 209, 2-[[4-(1,6-dimethyl-7-oxo-pyrrolo[2,3-c]pyridin-4-yl)-2,6-dimethoxy-phenyl]methyl-methyl-amino]-N-[8-[[2-(2,6-dioxo-3-piperidyl)-1,3-dioxo-isoindolin-4-yl]amino]octyl]acetamide]

tested on: SMARTCAR-MTH1-wt-HiBiT (Jurkat.7 cells); assay: HiBit Lytic Assay (HiBit DC50, MTH1 degraders of Table 2); assay type: cell-based, human; details: Jurkat.7 SMARTCAR-MTH1-wt-HiBiT cells, compound treatment time 4 hr, 11-point half log dose response
Procedure, shortened: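 Jurkat.7 cells expressing SMARTCAR-MTH1-wt-HiBiT were treated at 37° C with 11-point half-log dilutions (top final 1000 nM or 833 nM, duplicates, 0.1% DMSO). Remaining HiBiT-tagged protein was read by Nano-Glo HiBiT lytic luminescence, normalized to media-only and DMSO controls.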

DC50, < 100 nM:
CNC(=O)c1cnc2ccc(-c3ccc(C(=O)NCCCCNC(=O)CN(C)c4cccc5c4C(=O)N(C4CCC(=O)NC4=O)C5=O)cc3)cc2c1Nc1ccccc1 (stereo not shown) [Compound 471, 6-(4-((4-(2-((2-(2,6-dioxopiperidin-3-yl)-1,3-dioxoisoindolin-4-yl)(methyl)amino)acetamido)butyl)carbamoyl)phenyl)-N-methyl-4-(phenylamino)quinoline-3-carboxamide]
CNC(=O)c1cnc2ccc(-c3ccc(C(=O)NCCCNC(=O)CNc4cccc5c4C(=O)N(C4CCC(=O)NC4=O)C5=O)cc3)cc2c1Nc1ccccc1 (stereo not shown) [Compound 472, 6-(4-((3-(2-((2-(2,6-dioxopiperidin-3-yl)-1,3-dioxoisoindolin-4-yl)amino)acetamido)propyl)carbamoyl)phenyl)-N-methyl-4-(phenylamino)quinoline-3-carboxamide]
CNC(=O)c1cnc2ccc(-c3ccc(C(=O)NCCCNC(=O)CN(C)c4cccc5c4C(=O)N(C4CCC(=O)NC4=O)C5=O)cc3)cc2c1Nc1ccccc1 (stereo not shown) [Compound 473, 6-(4-((3-(2-((2-(2,6-dioxopiperidin-3-yl)-1,3-dioxoisoindolin-4-yl)(methyl)amino)acetamido)propyl)carbamoyl)phenyl)-N-methyl-4-(phenylamino)quinoline-3-carboxamide]
CNC(=O)c1cnc2ccc(-c3ccc(C(=O)NCCCCNC(=O)CN(C)c4cccc5c4C(=O)N(C4CCC(=O)NC4=O)C5=O)cc3)cc2c1Nc1ccccc1 (stereo not shown) [Compound 474, 6-(4-((4-(2-((2-(2,6-dioxopiperidin-3-yl)-1,3-dioxoisoindolin-4-yl)(methyl)amino)acetamido)butyl)carbamoyl)phenyl)-N-methyl-4-(phenylamino)quinoline-3-carboxamide]
CNC(=O)c1cnc2cc(OC)c(-c3ccc(C(=O)NCCCCNC(=O)COc4cccc5c4C(=O)N(C4CCC(=O)NC4=O)C5=O)cc3)cc2c1Nc1ccccc1 (stereo not shown) [Compound 475, 6-(4-((4-(2-((2-(2,6-dioxopiperidin-3-yl)-1,3-dioxoisoindolin-4-yl)oxy)acetamido)butyl)carbamoyl)phenyl)-7-methoxy-N-methyl-4-(phenylamino)quinoline-3-carboxamide]
